Assay results as given in patent US4820694A, “Modifications of 3-O-demethylmycinose in macrocin and lactenocin” (priority 1986, dated 1989).
Converted amounts (≈) assume the structure as drawn. Like-named read-outs stand apart in the source and are kept apart here.

Legend:
[1] = system: Pasteurella multocida 22A; experiment: broth-dilution microtiter MIC test; type: cell-based; settings: Pasteurella multocida, 22A
Protocol: (§1) The MIC's in Table III were determined by standard agar-dilution assays. The MIC's in Table IV were obtained using conventional brothdilution microtiter tests.

[2] = system: Pasteurella multocida 60A; experiment: broth-dilution microtiter MIC test; type: cell-based; settings: Pasteurella multocida, 60A
Protocol: as §1

[3] = system: Mycoplasma gallisepticum 15E; experiment: broth-dilution microtiter MIC test; type: cell-based; settings: Mycoplasmoides gallisepticum, 15E
Protocol: as §1

Mycoplasma hyorhinis 29E = experiment: broth-dilution microtiter MIC test; type: cell-based; settings: Mycoplasma, 29E
Protocol: as §1

Streptococcus sp. 19F = experiment: broth-dilution microtiter MIC test; type: cell-based; settings: Streptococcus, SP.19F
Protocol: as §1

[4] = system: Bordetella bronchiseptica; experiment: broth-dilution microtiter MIC test; type: cell-based; settings: Bordetella bronchiseptica
Protocol: as §1

[5] = system: Pasteurella hemolytica 23C; experiment: broth-dilution microtiter MIC test; type: cell-based; settings: Pasteurella, 23C
Protocol: as §1

[6] = system: Pasteurella multocida 68C; experiment: broth-dilution microtiter MIC test; type: cell-based; settings: Pasteurella multocida, 68C
Protocol: as §1

[7] = system: Mycoplasma gallisepticum 36H; experiment: broth-dilution microtiter MIC test; type: cell-based; settings: Mycoplasmoides gallisepticum, 36H
Protocol: as §1

[8] = system: Pasteurella hemolytica 22C; experiment: broth-dilution microtiter MIC test; type: cell-based; settings: Pasteurella, 22C
Protocol: as §1

[9] = system: Mycoplasma gallisepticum 29C; experiment: broth-dilution microtiter MIC test; type: cell-based; settings: Mycoplasmoides gallisepticum, 29C
Protocol: as §1

Mycoplasma synoviae 40A = experiment: broth-dilution microtiter MIC test; type: cell-based; settings: Mycoplasmopsis synoviae, 40A
Protocol: as §1

[10] = system: Staphylococcus aureus 19C; experiment: broth-dilution microtiter MIC test; type: cell-based; settings: Staphylococcus aureus, 19C
Protocol: as §1

[11] = system: Pasteurella hemolytica 41D; experiment: broth-dilution microtiter MIC test; type: cell-based; settings: Pasteurella, 41D
Protocol: as §1

[12] = system: Pasteurella multocida 17E; experiment: broth-dilution microtiter MIC test; type: cell-based; settings: Pasteurella multocida, 17E
Protocol: as §1

[13] = system: Pasteurella multocida 40G; experiment: broth-dilution microtiter MIC test; type: cell-based; settings: Pasteurella multocida, 40G
Protocol: as §1

[14] = system: Klebsiella pneumoniae X68; experiment: standard agar-dilution MIC assay; type: cell-based; settings: Klebsiella pneumoniae, X68
Protocol: as §1

[15] = system: Staphylococcus epidermidis EP12; experiment: standard agar-dilution MIC assay; type: cell-based
Protocol: as §1

[16] = system: Haemophilus influenzae C.L.; experiment: standard agar-dilution MIC assay; type: cell-based; settings: Haemophilus influenzae; agar-dilution; Ampicillin-sensitive strain; read-out: MIC
Protocol: as §1

Escherichia coli EC14 = experiment: standard agar-dilution MIC assay; type: cell-based
Protocol: as §1

[17] = system: Haemophilus influenzae 76; experiment: standard agar-dilution MIC assay; type: cell-based; settings: Haemophilus influenzae, 76
Protocol: as §1

[18] = system: Staphylococcus aureus X1.1; experiment: standard agar-dilution MIC assay; type: cell-based; settings: Staphylococcus aureus, X1.1
Protocol: as §1

[19] = system: Streptococcus Group D 9960; experiment: standard agar-dilution MIC assay; type: cell-based; settings: GROUPD9960, read-out: MIC
Protocol: as §1

[20] = system: Pseudomonas aeruginosa X239; experiment: standard agar-dilution MIC assay; type: cell-based; settings: Pseudomonas aeruginosa, X239
Protocol: as §1

[21] = system: Streptococcus pyogenes C203; experiment: standard agar-dilution MIC assay; type: cell-based; settings: Streptococcus pyogenes, C203
Protocol: as §1

[22] = system: Staphylococcus epidermidis EPI1; experiment: standard agar-dilution MIC assay; type: cell-based; settings: Staphylococcus epidermidis, EPI1
Protocol: as §1

[23] = system: Streptococcus Group D X66; experiment: standard agar-dilution MIC assay; type: cell-based; settings: read-out: MIC
Protocol: as §1

[24] = system: Staphylococcus aureus V41; experiment: standard agar-dilution MIC assay; type: cell-based; settings: Staphylococcus aureus, V41
Protocol: as §1

[25] = system: Staphylococcus aureus X400; experiment: standard agar-dilution MIC assay; type: cell-based; settings: Staphylococcus aureus, X400
Protocol: as §1

[26] = system: Streptococcus pyogenes C203; experiment: protection of mice experimentally infected with S. pyogenes C203; type: in vivo; settings: mice, mg/kg × 2, doses given 1 and 4 hours postinfection, read-out: ED50
How it was run: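 Activity is given as ED50, the mg/kg dose (×2) protecting half of the mice infected with S. pyogenes C203. Compound was dosed 1 and 4 h after infection.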

[27] = system: Streptococcus pneumoniae Park I; experiment: microbe, parasite or virus in culture; type: cell-based; settings: Streptococcus pneumoniae
Protocol: as §1

[28] = system: Staphylococcus aureus S13E; experiment: microbe, parasite or virus in culture; type: cell-based; settings: Staphylococcus aureus, S13E
Protocol: as §1

[29] = broth-dilution microtiter, read-out: MIC

CCC1OC(=O)CC(O)C(C)C(OC2OC(C)C(OC3CC(C)(O)C(O)C(C)O3)C(N(C)C)C2OC(C)=O)C(CC=O)CC(C)C(=O)C=CC(C)=CC1COC1OC(C)C(OC(=O)CC(C)C)C(OC(=O)CC(C)C)C1OC (stereo not drawn) [Compound 7, 2'-O-ACETYL-3'",4'"-di-O-isovaleryl-macrocin]
MIC [1, 29]: > 50 µg/mL
MIC ([2]; broth-dilution microtiter, Avian isolate, read-out: MIC): > 50 µg/mL
MIC [3]: 12.5 µg/mL (≈ 11.2 µM)
MIC (Mycoplasma hyorhinis 29E): 6.25 µg/mL (≈ 5.62 µM)
MIC (Streptococcus sp. 19F): 3.12 µg/mL (≈ 2.8 µM)
MIC [4, 29]: > 50 µg/mL
MIC [5, 29]: > 50 µg/mL
MIC [6, 29]: > 50 µg/mL
MIC [7]: 50 µg/mL (≈ 44.9 µM)
MIC [8, 29]: > 50 µg/mL
MIC [9]: 3.12 µg/mL (≈ 2.8 µM)
MIC (Mycoplasma synoviae 40A): 3.12 µg/mL (≈ 2.8 µM)
MIC [10]: 12.5 µg/mL (≈ 11.2 µM)
MIC [11, 29]: > 50 µg/mL
MIC ([12]; broth-dilution microtiter, Bovine isolate, read-out: MIC): > 50 µg/mL
MIC [13, 29]: > 50 µg/mL
MIC ([14]; agar-dilution, read-out: MIC): > 128 µg/mL
MIC [15]: 8 µg/mL (≈ 7.19 µM)
MIC [16]: > 128 µg/mL
MIC (Escherichia coli EC14; agar-dilution, read-out: MIC): > 128 µg/mL
MIC ([17]; agar-dilution, Ampicillin-resistant strain, read-out: MIC): > 128 µg/mL
MIC [18]: 8 µg/mL (≈ 7.19 µM)
MIC [19]: 8 µg/mL (≈ 7.19 µM)
MIC ([20]; agar-dilution, read-out: MIC): > 128 µg/mL
MIC [21]: 4 µg/mL (≈ 3.6 µM)
MIC [22]: 8 µg/mL (≈ 7.19 µM)
MIC [23]: 16 µg/mL (≈ 14.4 µM)
MIC [24]: 8 µg/mL (≈ 7.19 µM)
MIC [25]: 16 µg/mL (≈ 14.4 µM)
ED50 ([26]; C203, Oral): 71.4 mg/kg
ED50 ([26]; C203, sc, Subcutaneous): > 10 mg/kg
MIC [27]: 2 µg/mL (≈ 1.8 µM)
MIC [28]: 8 µg/mL (≈ 7.19 µM)

CCC1OC(=O)CC(O)C(C)C(OC2OC(C)C(OC3CC(C)(O)C(O)C(C)O3)C(N(C)C)C2OC(C)=O)C(CC=O)CC(C)C(=O)C=CC(C)=CC1COC1OC(C)C(OC(C)=O)C(O)C1OC (stereo not drawn) [Compound 1, 2',4'"-Di-O-acetyl-macrocin]
MIC [1]: > 50 µg/mL
MIC [2]: > 50 µg/mL
MIC [3]: > 50 µg/mL
MIC (Mycoplasma hyorhinis 29E; [29]): 25 µg/mL (≈ 25.4 µM)
MIC (Streptococcus sp. 19F; [29]): 3.12 µg/mL (≈ 3.16 µM)
MIC [4]: > 50 µg/mL
MIC [5]: > 50 µg/mL
MIC [6]: > 50 µg/mL
MIC [7]: > 50 µg/mL
MIC [8]: > 50 µg/mL
MIC [9, 29]: 0.78 µg/mL (≈ 0.791 µM)
MIC (Mycoplasma synoviae 40A; [29]): 1.56 µg/mL (≈ 1.58 µM)
MIC [10, 29]: 6.25 µg/mL (≈ 6.34 µM)
MIC [11]: > 50 µg/mL
MIC [12]: > 50 µg/mL
MIC [13]: > 50 µg/mL
MIC [14]: > 128 µg/mL
MIC ([15]; agar-dilution, read-out: MIC): 2 µg/mL (≈ 2.03 µM)
MIC [16]: 64 µg/mL (≈ 64.9 µM)
MIC (Escherichia coli EC14): > 128 µg/mL
MIC [17]: 1 µg/mL (≈ 1.01 µM)
MIC ([18]; agar-dilution, read-out: MIC): 2 µg/mL (≈ 2.03 µM)
MIC [19]: 4 µg/mL (≈ 4.06 µM)
MIC [20]: > 128 µg/mL
MIC [21]: 1 µg/mL (≈ 1.01 µM)
MIC ([22]; agar-dilution, read-out: MIC): 2 µg/mL (≈ 2.03 µM)
MIC [23]: 4 µg/mL (≈ 4.06 µM)
MIC ([24]; agar-dilution, Penicillin-resistant strain, read-out: MIC): 2 µg/mL (≈ 2.03 µM)
MIC [25]: 4 µg/mL (≈ 4.06 µM)
ED50 ([26]; C203, Oral): 43.5 mg/kg
ED50 ([26]; C203, sc, Subcutaneous): 6.6 mg/kg
MIC ([27]; agar-dilution, read-out: MIC): 0.5 µg/mL (≈ 0.507 µM)
MIC [28]: 4 µg/mL (≈ 4.06 µM)
